Values joined by “and” are separate entries in the source; they are usually repeats but may differ in a detail not shown here. Equal values may be shown once. Toxic doses and inconclusive results are not listed. Peptide text beside a SMILES is read from it. * marks the point of attachment. Cbz = O=C(OCc1ccccc1)*; CH2Cl = ClC*
Tested on: P388 leukemia ip, CD2F1 mice, survival T/C
Assay: NCI In Vivo Anticancer Drug Screen. Data for tumor model P388 Leukemia (intraperitoneal) in CD2F1 (CDF1) mice
Conditions: endpoint: median survival time, higher = longer survival
Method in brief: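 Mice carrying the transplanted tumor received test compound or vehicle. Survival was recorded in each group, and the value is the treated-group measurement divided by that of the vehicle-treated control group.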

[1] = dose: 50.0 mg/kg/injection, schedule: Q01DX005 (ip), vehicle: saline with Tween-80
[2] = dose: 100.0 mg/kg/injection, schedule: Q01DX005 (ip), vehicle: saline with Tween-80
[3] = dose: 200.0 mg/kg/injection, schedule: Q01DX005 (ip), vehicle: saline with Tween-80
[4] = dose: 50.0 mg/kg/injection, schedule: Q01DX009 (ip), vehicle: saline
[5] = dose: 100.0 mg/kg/injection, schedule: Q01DX009 (ip), vehicle: saline with Tween-80
[6] = dose: 200.0 mg/kg/injection, schedule: Q01DX009 (ip), vehicle: saline with Tween-80
[7] = dose: 100.0 mg/kg/injection, schedule: Q04DX003 (ip), vehicle: saline with Tween-80
[8] = dose: 200.0 mg/kg/injection, schedule: Q04DX003 (ip), vehicle: saline with Tween-80
[9] = dose: 400.0 mg/kg/injection, schedule: Q04DX003 (ip), vehicle: saline with Tween-80
[10] = dose: 50.0 mg/kg/injection, schedule: Q01DX009 (ip), vehicle: Klucel (hydroxypropylcellulose) (HPC)
[11] = dose: 100.0 mg/kg/injection, schedule: Q01DX009 (ip), vehicle: Klucel (hydroxypropylcellulose) (HPC)
[12] = dose: 200.0 mg/kg/injection, schedule: Q01DX009 (ip), vehicle: Klucel (hydroxypropylcellulose) (HPC)
[13] = dose: 50.0 mg/kg/injection, schedule: Q01DX009 (ip), vehicle: saline with Tween-80
[14] = dose: 60.0 mg/kg/injection, schedule: Q01DX005 (ip), vehicle: saline with Tween-80
[15] = dose: 120.0 mg/kg/injection, schedule: Q01DX005 (ip), vehicle: saline with Tween-80
[16] = dose: 25.0 mg/kg/injection, schedule: Q01DX009 (ip), vehicle: saline
[17] = dose: 100.0 mg/kg/injection, schedule: Q01DX009 (ip), vehicle: saline
[18] = dose: 6.25 mg/kg/injection, schedule: Q01DX009 (ip), vehicle: saline
[19] = dose: 12.5 mg/kg/injection, schedule: Q01DX009 (ip), vehicle: saline

SMILES: Cc1[nH]c2c(ccc3c2ccc2c(=O)c(Cl)c(C)[nH]c23)c(=O)c1Cl
- T/C [1]: 96 % of control
- T/C [2]: 95 % of control
- T/C [3]: 94 % of control

SMILES: CN1CCc2cc3c4cc2C1Cc1ccc(O)c(c1)Oc1ccc(cc1)CC1c2c(cc(O)c(c2O4)O3)CCN1C (configuration not stated)
- T/C (dose: 0.25 mg/kg/injection, schedule: Q01DX009 (ip), vehicle: saline): 103 % of control
- T/C (dose: 0.5 mg/kg/injection, schedule: Q01DX009 (ip), vehicle: saline): 110 % of control
- T/C (dose: 1.0 mg/kg/injection, schedule: Q01DX009 (ip), vehicle: saline): 103 % of control
- T/C (dose: 2.0 mg/kg/injection, schedule: Q01DX009 (ip), vehicle: saline): 100 % of control
- T/C (dose: 4.0 mg/kg/injection, schedule: Q01DX009 (ip), vehicle: saline): 94 % of control

SMILES: [Co].[N-]=C=S.[N-]=C=S.[N-]=C=S.[N-]=C=S
- T/C (dose: 9.5 mg/kg/injection, schedule: Q01DX009 (ip), vehicle: saline): 101 % of control
- T/C (dose: 19.0 mg/kg/injection, schedule: Q01DX009 (ip), vehicle: saline): 93 % of control
- T/C (dose: 38.0 mg/kg/injection, schedule: Q01DX009 (ip), vehicle: saline): 104 % of control
- T/C [4]: 161 % of control

SMILES: O=C(Nc1ccc(Br)cc1)c1ccccc1
- T/C [5]: 95 % of control
- T/C [6]: 90 % of control
- T/C (dose: 400.0 mg/kg/injection, schedule: Q01DX009 (ip), vehicle: saline with Tween-80): 100 % of control

SMILES: CC1(C)OC2C(CO)OC(n3ncc(=S)[nH]c3=O)C2O1 (configuration not stated)
- T/C [7]: 102 % of control
- T/C [8]: 86 % of control
- T/C [9]: 97 % of control

SMILES: Cc1ccc(NC(=O)Nc2cccnc2)cc1NC(=O)Nc1cccnc1
- T/C [10]: 102 % of control
- T/C [11]: 110 % of control
- T/C [12]: 100 % of control

SMILES: O=S(=O)(NCc1ccccc1)c1ccccc1
- T/C (dose: 12.5 mg/kg/injection, schedule: Q01DX009 (ip), vehicle: Klucel (hydroxypropylcellulose) (HPC)): 104 % of control
- T/C (dose: 25.0 mg/kg/injection, schedule: Q01DX009 (ip), vehicle: Klucel (hydroxypropylcellulose) (HPC)): 94 % of control
- T/C [10]: 95 % of control
- T/C [11]: 104 % of control
- T/C [12]: 106 % of control

SMILES: CC(=O)Oc1c(Cl)c(Cl)c(C#N)c(Cl)c1C#N
- T/C (dose: 25.0 mg/kg/injection, schedule: Q01DX009 (ip), vehicle: saline with Tween-80): 100 % of control and 105 % of control
- T/C [13]: 105 % of control

SMILES: Cc1[nH]n(-c2ccc(S(=O)(=O)O)cc2)c(=O)c1N=Nc1ccccc1
- T/C [14]: 96 % of control
- T/C [15]: 100 % of control
- T/C (dose: 240.0 mg/kg/injection, schedule: Q01DX005 (ip), vehicle: saline with Tween-80): 90 % of control

SMILES: COc1cccc(C(OC(=O)c2ccccc2)c2nncc3ccccc23)c1OC (configuration not stated)
- T/C [10]: 100 % of control
- T/C [11]: 103 % of control
- T/C [12]: 100 % of control

SMILES: CCOC(=O)Cn1cnc2cc(C)c(C)cc21
- T/C [7]: 90 % of control
- T/C [8]: 100 % of control
- T/C [9]: 90 % of control

SMILES: C/C=C1\CN2CCC34c5ccccc5N(C)C35OCC4(C(=O)OC)C1CC25 (configuration not stated)
- T/C (dose: 5.25 mg/kg/injection, schedule: Q01DX005 (ip), vehicle: saline + Tween-80 + alcohol): 100 % of control
- T/C (dose: 10.5 mg/kg/injection, schedule: Q01DX005 (ip), vehicle: saline + Tween-80 + alcohol): 92 % of control
- T/C (dose: 21.0 mg/kg/injection, schedule: Q01DX005 (ip), vehicle: saline + Tween-80 + alcohol): 98 % of control
- T/C (dose: 42.0 mg/kg/injection, schedule: Q01DX005 (ip), vehicle: saline + Tween-80 + alcohol): 96 % of control

SMILES: [O-][n+]1cc(Cl)cc(Cl)c1
- T/C [16]: 100 % of control and 106 % of control
- T/C [4]: 108 % of control and 96 % of control
- T/C [17]: 100 % of control and 96 % of control
- T/C (dose: 200.0 mg/kg/injection, schedule: Q01DX009 (ip), vehicle: saline): 99 % of control and 102 % of control
- T/C (dose: 400.0 mg/kg/injection, schedule: Q01DX009 (ip), vehicle: saline): 99 % of control and 96 % of control

SMILES: CCOC(=C\C(=O)NC)/C=C/c1ccc([N+](=O)[O-])cc1
- T/C (dose: 6.25 mg/kg/injection, schedule: Q01DX005 (ip), vehicle: Klucel (hydroxypropylcellulose) (HPC)): 117 % of control
- T/C (dose: 12.5 mg/kg/injection, schedule: Q01DX005 (ip), vehicle: Klucel (hydroxypropylcellulose) (HPC)): 91 % of control
- T/C (dose: 25.0 mg/kg/injection, schedule: Q01DX005 (ip), vehicle: Klucel (hydroxypropylcellulose) (HPC)): 91 % of control
- T/C (dose: 50.0 mg/kg/injection, schedule: Q01DX005 (ip), vehicle: Klucel (hydroxypropylcellulose) (HPC)): 86 % of control
- T/C (dose: 100.0 mg/kg/injection, schedule: Q01DX005 (ip), vehicle: Klucel (hydroxypropylcellulose) (HPC)): 88 % of control

SMILES: Nc1nc(N)c(N=O)c(Nc2ccc(Cl)c(Cl)c2)n1
- T/C [7]: 100 % of control
- T/C [8]: 90 % of control

SMILES: Cc1ccc(C)c(NC(=O)Oc2cc(C)c(Cl)c(C)c2)c1
- T/C [13]: 101 % of control
- T/C [5]: 105 % of control
- T/C [6]: 98 % of control

SMILES: Cc1nc(Br)c(Br)n1C
- T/C [14]: 93 % of control
- T/C [15]: 88 % of control

SMILES: CC(C)CC(NC(=O)OCc1ccccc1)C(=O)NC(Cc1ccccc1)C(=O)CCl (stereo not drawn) (Cbz-Leu-Phe-CH2Cl; configuration not given here)
- T/C [18]: 107 % of control
- T/C [19]: 106 % of control
- T/C [16]: 111 % of control
- T/C [4]: 113 % of control
- T/C [17]: 120 % of control

SMILES: N/C(=N\O)c1nc2c(N)nc(-c3ccccc3)nc2nc1N
- T/C (dose: 37.5 mg/kg/injection, schedule: Q01DX009 (ip), vehicle: saline with Tween-80): 109 % of control
- T/C (dose: 75.0 mg/kg/injection, schedule: Q01DX009 (ip), vehicle: saline with Tween-80): 95 % of control
- T/C (dose: 150.0 mg/kg/injection, schedule: Q01DX009 (ip), vehicle: saline with Tween-80): 97 % of control

SMILES: Nc1ncnc2c1ncn2C1OC(COP(=O)(O)OP(=O)(O)OP(=O)(O)O)C(OP(=O)(O)OP(=O)(O)OP(=O)(O)O)C1O (configuration not stated) (tested in a mixture with another compound)
- T/C (dose: 60.0 mg/kg/injection, schedule: Q01DX005 (ip), vehicle: Klucel (hydroxypropylcellulose) (HPC)): 93 % of control
- T/C (dose: 120.0 mg/kg/injection, schedule: Q01DX005 (ip), vehicle: Klucel (hydroxypropylcellulose) (HPC)): 103 % of control
- T/C (dose: 240.0 mg/kg/injection, schedule: Q01DX005 (ip), vehicle: Klucel (hydroxypropylcellulose) (HPC)): 101 % of control

SMILES: O=c1c2ccccc2nnn1O
- T/C (dose: 100.0 mg/kg/injection, schedule: Q04DX003 (ip), vehicle: Klucel (hydroxypropylcellulose) (HPC)): 108 % of control
- T/C (dose: 200.0 mg/kg/injection, schedule: Q04DX003 (ip), vehicle: Klucel (hydroxypropylcellulose) (HPC)): 108 % of control

SMILES: COC(C(=O)CN(C)C)(c1ccccc1)c1ccccc1
- T/C (dose: 60.0 mg/kg/injection, schedule: Q01DX005 (ip), vehicle: saline): 107 % of control
- T/C (dose: 120.0 mg/kg/injection, schedule: Q01DX005 (ip), vehicle: saline): 99 % of control
- T/C (dose: 240.0 mg/kg/injection, schedule: Q01DX005 (ip), vehicle: saline): 105 % of control

SMILES: NC(CSCc1ccc(N(CCCl)CCCl)cc1)C(=O)O (configuration not stated)
- T/C (dose: 4.0 mg/kg/injection, schedule: Q01DX009 (ip), vehicle: saline with Tween-80): 172 % of control
- T/C (dose: 6.0 mg/kg/injection, schedule: Q01DX009 (ip), vehicle: saline with Tween-80): 218 % of control
- T/C (dose: 6.25 mg/kg/injection, schedule: Q01DX009 (ip), vehicle: saline with Tween-80): 245 % of control
- T/C (dose: 9.0 mg/kg/injection, schedule: Q01DX009 (ip), vehicle: saline with Tween-80): 159 % of control

SMILES: C(=C\c1ccnc2c1ccc1ccccc12)/c1ccccc1
- T/C (dose: 12.5 mg/kg/injection, schedule: Q01DX005 (ip), vehicle: saline with Tween-80): 96 % of control
- T/C (dose: 25.0 mg/kg/injection, schedule: Q01DX005 (ip), vehicle: saline with Tween-80): 96 % of control
- T/C [1]: 90 % of control
- T/C [2]: 88 % of control
- T/C [3]: 88 % of control

SMILES: CN(C)CCCNC1=C(Cl)C(=O)C(NCCCN(C)C)=C(Cl)C1=O
- T/C [18]: 91 % of control
- T/C [19]: 94 % of control
- T/C [16]: 111 % of control
- T/C [4]: 89 % of control
